Measurements taken from patent publication US11957671B2, “Benzodioxane modulators of leukotriene A4 hydrolase (LTA4H) for prevention and treatment of aging-associated diseases” (Alkahest, Inc., priority 2021, dated 2024).

Assays:
[1] = tested on: hippocampal neurons of aged C57BL/6 mice; test: Single cell RNA sequencing of NeuN+ hippocampal nuclei (CA1, DG); assay type: in vivo, mouse
Method: Aged C57BL/6 mice (21 months of age) were treated for 1 month bid po with vehicle, 1 mg/kg Compound 1, or 2.5 mg/kg SC57461A (n=3 mice per treatment group). NucSeq For Mouse Brain Tissue protocol from 10× Genomics was used to isolate mouse hippocampus nuclei. Approximately 65 mg of brain tissue were used per treatment. Nonidet P40 was used to lyse cell walls and isolated nuclei were stained with Draq5 and NeuN antibodies for FACS sorting. Approximately 5,000 nuclei were collected for each sample. Eight samples were collected for each treatment for a total of 40,000 nuclei per treatment. These samples were prepped for sequencing using the 10× Genomics Chromium Next GEM kit.
GO terms are generated using the g:Profiler Web server (https://bitt.cs.ut.ee/gprofiler) to analyze differential regulated gene lists. Reported are the top 20 gene ontology (GO terms) terms from the biological process category, sorted by significance as determined by P-value. This list was filtered to report significant GO terms that include less than 1000 genes.

[2] = tested on: Male C57BL/6 mice aged 20-21 months; test: Cortical brain lysate Cardiovascular Disease Panel (Luminex); assay type: in vivo, mouse; conditions: 10 mg/kg po one month
Method: Male C57BL/6 mice aged 20-21 months were treated with Vehicle or 10 mg/kg Compound 1 LTA4H inhibitor po for one month. Mice were anesthetized and perfused with saline. Brain tissue was collected, and sub dissected into cortex and hippocampus. Cortex samples were lysed in RIPA buffer and the soluble supernatant fraction was sent to Eve Technologies for analysis on the Cardiovascular Disease Panel using Luminex technology.

aged C57BL6 mice = test: Nesting; assay type: in vivo, mouse; conditions: 10 days of dosing
Method: All nesting material was removed from home cage and mice were given 2 fresh nestlets 12-18 hours prior to scoring. The nest was carefully scored on a scale of 0-5 by an experimenter blinded to treatment group: 0 undisturbed, 1 disturbed, 2 flat, 3 cup, 4 incomplete dome, 5 complete dome.

LTA4H = LTA4H (Mus musculus (Mouse), UniProt P24527); test: LTB4 Target Engagement Assay (in vivo dosing, calcimycin stimulated blood); conditions: for LTB4 levels in calcimycin stimulated plasma: aged mice
Method: Whole blood was collected by cardiac puncture using heparin as an anti-coagulant. 160 μL of whole blood was collected in duplicate for each mouse and incubated for 15 minutes in 37° C./5% CO2. During this time a 0.1 mM calcimycin stock was made by diluting 10 mM calcimycin (Sigma C7522) formulated in DMSO into PBS. Control solution was made by diluting the same volume of DMSO in PBS. Both solutions were sonicated for 10 minutes in a 37° C. water bath. 40 μL of 0.1 mM calcimycin (stimulated) or control solution (unstimulated) was added to each well of whole blood and incubated at 37° C./5% CO2 for 30 minutes. Whole blood was spun for 10 minutes at 1000×g to separate out plasma. LTB4 levels were detected by running an ELISA on the collected stimulated and unstimulated plasma diluted 1:10 (Enzo Life Sciences, ADI-901-068). The ELISA plates were read on a BMG LABTECH CLARIOstar plate reader at 405 nm.
FIGS. 60-62 report the results of in vivo target engagement assays with Compound 1 in mouse plasma. Whole blood from mice dosed with Compound 1 for 10-day FIG. 60 or 4 weeks FIG. 61 was incubated with a calcium ionophore to stimulate LTB4 release. Plasma was generated and LTB4 levels were measured using ELISA. LTB4 is the product of LTA4H hydrolysis so this assay reports on LTA4H enzymatic activity.

[3] = tested on: LTA4H hydrolysis activity in mouse whole blood; test: Ex Vivo LTB4 Assay, mouse blood; assay type: cell-based; conditions: mouse whole blood incubated with compound
Method: Whole blood was incubated with Compound 1 or vehicle and then a calcium ionophore (Calcimycin, A23187), or 10% DMSO. LTB4 levels in plasma were measured using ELISA.
FIGS. 36-37 report the results of ex vivo target engagement assays with Compound 1 in human and mouse plasma. Whole blood from human or mouse was incubated with vehicle or Compound 1, following by a calcium ionophore stimulation. Plasma was generated and LTB4 levels were measured using ELISA. LTB4 is the product of LTA4H hydrolysis so this assay reports on LTA4H enzymatic activity.

[4] = tested on: aged wild type (WT; C57BL/6) mice; test: Histology of astrocytes (GFAP, AQP4) in CA1 hippocampus; assay type: in vivo, mouse
Method: Brains were collected following saline perfusion and separated by mid-sagittal slice with one-half drop fixed in freshly prepared 4% PFA. PFA was changed to 30% sucrose 24-48 hours later. A second change to 30% sucrose occurred 24 hours later. Brain tissue was sectioned or lysed and analyzed for GFAP, AQP4, or IBA1 by standard histological methods. Images were acquired using a confocal microscope or Axioscan slide scanner.
Three independent cohorts of aged wild type (WT; C57BL/6) mice between twenty to twenty-two months of age (20-22 mo) were homogenized into two (2) groups by body weight, total distance travelled in the open field test, and average velocity in the open field test. Group 1 was administered vehicle control PO daily. Group 2 was administered 10 mg/kg of the LTA4H inhibitor Compound 1 PO daily. Both groups were dosed for either 10 days or 4 weeks daily. Behavioral assays were run during the last week of dosing and animals were sacrificed at the end of the study for histological and molecular assays.
FIGS. 22-30 report the results of the histology of astrocytes. GFAP is a pan astrocytic marker that was used to measure total number and size of astrocytes as a readout for astrocyte reactivity. AQP4 is a water channel expressed in astrocyte endfeet that line the blood-brain barrier. GFAP and AQP4 are increased with age and diseases with cognitive decline and BBB impairment (Kress B T et al., Ann Neurol, 76(6):845-61 (2014), Owasil R et al., Int J Mol Sci, 21(4) (2020), and Qi L et al., Life Sci, 88(1-2):50-56)). FIG. 22 reports GFAP percent area (Mann-Whitney test. (n=10, 10)), FIG. 23 reports the number of GFAP+ cells (Mann-Whitney test. (n=10, 10)), and FIG. 24 reports the average size of GFAP+ cells (Mann-Whitney test. (n=10, 10)) in the CA1 region of the hippocampus following 10 days of dosing. FIG. 25 reports the AQP4 intensity across a 60 micron (um) long line drawn across the large descending vessels of the CA1 hippocampus after 10 days of dosing with vehicle or Compound 1.

[5] = 1 month bid po, 1 mg/kg Compound 1 or 2.5 mg/kg SC57461A

Chain of LTA4H (P24527 whole entry): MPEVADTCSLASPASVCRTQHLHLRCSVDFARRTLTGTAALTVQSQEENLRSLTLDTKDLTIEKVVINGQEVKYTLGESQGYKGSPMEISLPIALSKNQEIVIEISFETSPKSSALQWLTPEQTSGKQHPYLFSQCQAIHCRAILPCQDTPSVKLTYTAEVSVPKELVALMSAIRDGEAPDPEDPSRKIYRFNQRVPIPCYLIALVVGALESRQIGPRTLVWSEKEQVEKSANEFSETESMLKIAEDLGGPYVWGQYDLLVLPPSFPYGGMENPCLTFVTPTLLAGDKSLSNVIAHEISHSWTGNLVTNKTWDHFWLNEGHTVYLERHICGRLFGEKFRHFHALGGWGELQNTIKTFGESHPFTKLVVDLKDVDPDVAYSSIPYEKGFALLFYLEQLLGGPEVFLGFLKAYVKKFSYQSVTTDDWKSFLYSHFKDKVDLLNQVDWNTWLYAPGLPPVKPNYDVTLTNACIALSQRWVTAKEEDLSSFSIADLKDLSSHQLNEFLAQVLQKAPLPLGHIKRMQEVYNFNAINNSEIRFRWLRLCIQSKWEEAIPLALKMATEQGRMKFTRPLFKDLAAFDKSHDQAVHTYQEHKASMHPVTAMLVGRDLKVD

O=C(O)C1CCN(Cc2ccc([C@H]3COc4ccccc4O3)cc2)CC1 [Example 1, 1-{4-[(2S)-2,3-dihydro-1,4-benzodioxin-2-yl]benzyl}piperidine-4-carboxylic acid] was tested, and the “CA1 neuronal gene changes” value [1, 5] was “many significant gene changes to neurons in the CA1 region of the hippocampus”, the “DG neuronal gene changes” value [1, 5] was “many significant gene changes to neurons in the DG region of the hippocampus” and the “Dcc gene expression in the dentate gyrus” value [1, 5] was “upregulation of Dcc gene expression”. The “Spock3 gene expression in the dentate gyrus” value [1, 5] was “upregulation of Spock3 gene expression”, the “Biological Process GO terms, CA1 hippocampal neurons” value ([1]; long-term treatment) was “changes to “synaptic signaling” and “synaptic organization”” and the “Biological Process GO terms, DG hippocampal neurons” value ([1]; long-term treatment) was “changes to synapses”. For the same compound, the “cortical MMP9 protein” value [2] was “trending reduction in cortical MMP9 protein”, the “cortical Pecam-1 protein” value [2] was “trending reduction in cortical Pecam-1 protein” and the nesting building score (aged C57BL6 mice) was “no change in nesting building score”. The “LTB4 levels in calcimycin stimulated plasma” value (LTA4H; 4 weeks of dosing) was “inhibition of LTA4H”, the “LTB4 levels in calcimycin stimulated plasma” value (LTA4H; 10 days of dosing) was “inhibition of LTA4H” and the “LTB4 inhibition, compound made for 3 independent studies” value (LTA4H; young mice, 2 hours after a single dose) was “no difference in the amount of inhibition across the 3 independent studies”. The “LTB4 plasma levels after calcium ionophore stimulation” value [3] was “reduces LTB4 plasma levels to unstimulated levels”, the “AQP4 intensity across large descending vessels of CA1 hippocampus” value ([4]; 4 weeks of treatment) was “reduction in the AQP4 intensity” and the “GFAP percent thresholded area, CA1” value ([4]; 4 weeks of treatment) was “significant reduction GFAP percent thresholded area”. The “total GFAP+ cell number, CA1” value ([4]; 4 weeks of treatment) was “did not change” and the “AQP4 intensity across large descending vessels of CA1 hippocampus” value ([4]; 10 days of dosing) was “trending reduction in AQP4 intensity”.
